US8071548B2, “Method of reducing injury to mammalian cells” (Nono, Inc., priority 2002, dated 2011)

What was measured:
[1] = Physiological variables in pre-treatment MCAO study; type: in vivo, Sprague-Dawley rats
Procedure: Next, I examined whether pretreatment with Tat-peptides would reduce stroke damage. Experiments were carried out in adult male Sprague-Dawley rats subjected to transient middle cerebral artery occlusion (MCAO) for 90 minutes by the intraluminal suture method (36,37). Animals were fasted overnight and injected with atropine sulfate (0.5 mg/kg IP). After 10 minutes anesthesia was induced with 3.5% halothane in a mixture of nitrous oxide and oxygen (Vol. 2:1) and maintained with 0.8% halothane. Rats were orally intubated, mechanically ventilated, and paralyzed with pancuronium bromide (0.6 mg/kg IV). Body temperature was maintained at 36.5-37.5° C. with a heating lamp. Polyethylene catheters in the femoral artery and vein were used to continuously record blood pressure and to sample blood for gas and pH measurements. […] This produces an extensive infarction encompassing the cerebral cortex and basal ganglia. […] Physiological parameters (body temperature, blood pressure, blood gases) were monitored and maintained throughout the experiment (Table 1). All experimental manipulations and analyses of data were performed by individuals blinded to the treatment groups. The extent of cerebral infarction was measured 24 h after MCAO onset (FIG. 7C inset). The postural reflex test (38), and the forelimb placing test (39) were used to grade neurological function on a scale of 0 to 12 (normal=0; worst=12) during MCAO (at 50 minutes) and 24 h thereafter.

[2] = system: transient unilateral middle cerebral artery occlusion

Tat-KLSSIESDV [Tat-NR2B9c]
Body Temperature ([1]; After MCAo (15 min)): 36.8 ± 0.12 °C | Body Temperature ([1]; After MCAo (24 hr)): 36.5 ± 0.14 °C | Body weight ([1]; After MCAo (24 hr)): 250 ± 5 g | Body Temperature ([1]; Before MCAo(15 min)): 36.7 ± 0.20 °C | MABP ([1]; Before MCAo(15 min)): 90 ± 6 mmHg | Blood gases PCO2 ([1]; Before MCAo(30 min)): 38.1 ± 1.4 mmHg | Blood gases PH ([1]; Before MCAo(30 min)): 7.44 ± 0.02 | Blood gases PO2 ([1]; Before MCAo(30 min)): 123 ± 8 mmHg | Body Temperature ([1]; Before MCAo(30 min)): 36.7 ± 0.19 °C | MABP ([1]; Before MCAo(30 min)): 76 ± 5 mmHg | Body Temperature ([1]; Before MCAo(45 min)): 36.6 ± 0.21 °C | MABP ([1]; Before MCAo(45 min)): 120 ± 9 mmHg | Body weight ([1]; Before anesthesia): 271 ± 5 g | Blood gases PCO2 ([1]; During MCAo (5 min)): 41.0 ± 1.3 mmHg | Blood gases PH ([1]; During MCAo (5 min)): 7.44 ± 0.02 | Blood gases PO2 ([1]; During MCAo (5 min)): 112 ± 6 mmHg | Body Temperature ([1]; During MCAo (5 min)): 36.7 ± 0.16 °C | MABP ([1]; During MCAo (5 min)): 112 ± 9 mmHg | Body Temperature ([1]; During MCAo (15 min)): 36.8 ± 0.23 °C | MABP ([1]; During MCAo (15 min)): 98 ± 6 mmHg | return to pre-surgery weight for 2 consecutive days, earlier than saline or NR2B-AA treated rats ([2]; 3 nmoles/g i.v. 3 hours after onset of ischemia): about 1 week | Mean latency to retreat from the open to the closed arm in the elevated plus maze ([2]; 6 days following MCA occlusion): significant difference from Tat-NR2B-AA | Mean (SE) core temperature during surgery ([2]; MCAO 90 min): 37.1 (∀0.1) | Mean (SE) core temperature subsequent to surgery ([2]; MCAO 90 min): 37.9 (∀0.2) | Mean (SE) systolic blood pressure during surgery ([2]; MCAO 90 min): 112 (∀6.3) | Mean (SE) systolic blood pressure prior to surgery ([2]; MCAO 90 min): 106 (∀4.3) | Mean (SE) systolic blood pressure subsequent to surgery ([2]; MCAO 90 min): 122 (∀5.5) | Mean (SE) core temperature prior to surgery ([2]; MCAO 90 min, drug i.v. 3 hours after onset of ischemia): 36.7 (∀0.2) | individual weight post-surgery versus controls ([2]; a number of days including day 56 post-injury): significantly heavier | Morris water maze acquisition phase ([2]; approximately 2 months post-injury): No significant group differences | Morris water maze memory (time in the target quadrant) ([2]; approximately 2 months post-injury, vs combined control): significantly reduced memory deficits | Barnes maze escape latencies, acquisition phase ([2]; days 36-45): consistently shorter mean escape latencies | Barnes maze retest (memory) ([2]; days 36-45, relative to controls): performed significantly better | Habituation score for grid crosses in the open field arena ([2]; difference between day 5 and day 15): significant difference from Tat-NR2B-AA and Saline | latency in horizontal ladder task ([2]; post-surgery days 5, 9 and 14): significantly reduced latencies | number of paw slips in horizontal ladder task ([2]; post-surgery days 5, 9 and 14): significantly fewer paw slips | total infarct area and volume at 62 days post-surgery ([2]; relative to TAT-NR2B-AA and saline): reduced total infarct area and volume | Mean sensory-motor score over 56 days post-MCAO ([2]; treated at 3 hours post-MCAO): significant long-term functional neuroprotection
